Assay results from patent US12257237B2 (priority 2017, dated 2025).
Several values for one entry are separate records, joined by “and”; a condition that tells them apart may be missing. Equal entries are not always repeated.

Experiment: Drug tolerability (body weight) in TC-71 Ewing sarcoma xenograft model
Assay type: in vivo, Athymic nude mice
Conditions: for BWL %: negative = loss vs day 9
Protocol: Experiments were performed with female Athymic nude mice, 9-10 weeks old obtained from Harlan Laboratories (Udine, Italy). They were maintained under Specific Pathogen Free conditions with constant temperature and humidity, according to the institutional guidelines.
Tumour growth mice was monitored two/three times a week (depending on tumour growth rate, to avoid unnecessary stress to the animals) by Vernier caliper. Mice were sacrificed when tumour reached a mean weight of 2±0.5 gr. The antitumour activity will be expressed as T/C %, where T and C were the mean tumour weight of treated and control groups, respectively. Mice were monitored daily and weighted at least two times a week. Tolerability was evaluated on the basis of body weight loss (BWL) and clinical observation.

[1] = EDO40: EDO-S101 40 mg/kg, day 9 from tumour inoculum (treatment start)
[2] = EDO40: EDO-S101 40 mg/kg, day 10 from tumour inoculum
[3] = EDO40: EDO-S101 40 mg/kg, day 11 from tumour inoculum
[4] = EDO40: EDO-S101 40 mg/kg, day 14 from tumour inoculum
[5] = EDO40: EDO-S101 40 mg/kg, day 16 from tumour inoculum
[6] = EDO40: EDO-S101 40 mg/kg, day 18 from tumour inoculum
[7] = EDO40: EDO-S101 40 mg/kg, day 21 from tumour inoculum
[8] = EDO40: EDO-S101 40 mg/kg, day 23 from tumour inoculum
[9] = EDO40: EDO-S101 40 mg/kg, day 25 from tumour inoculum
[10] = EDO40: EDO-S101 40 mg/kg, day 28 from tumour inoculum
[11] = EDO40: EDO-S101 40 mg/kg, day 30 from tumour inoculum
[12] = EDO40: EDO-S101 40 mg/kg, day 32 from tumour inoculum
[13] = EDO60: EDO-S101 60 mg/kg, day 9 from tumour inoculum (treatment start)
[14] = EDO60: EDO-S101 60 mg/kg, day 10 from tumour inoculum
[15] = EDO60: EDO-S101 60 mg/kg, day 11 from tumour inoculum
[16] = EDO60: EDO-S101 60 mg/kg, day 14 from tumour inoculum
[17] = EDO60: EDO-S101 60 mg/kg, day 16 from tumour inoculum
[18] = EDO60: EDO-S101 60 mg/kg, day 18 from tumour inoculum
[19] = EDO60: EDO-S101 60 mg/kg, day 21 from tumour inoculum
[20] = EDO60: EDO-S101 60 mg/kg, day 23 from tumour inoculum
[21] = EDO60: EDO-S101 60 mg/kg, day 25 from tumour inoculum
[22] = EDO60: EDO-S101 60 mg/kg, day 28 from tumour inoculum
[23] = EDO60: EDO-S101 60 mg/kg, day 30 from tumour inoculum
[24] = EDO60: EDO-S101 60 mg/kg, day 32 from tumour inoculum
[25] = EDO60: EDO-S101 60 mg/kg, day 35 from tumour inoculum
[26] = EDO60: EDO-S101 60 mg/kg, day 38 from tumour inoculum
[27] = EDO60: EDO-S101 60 mg/kg, day 42 from tumour inoculum
[28] = EDO60: EDO-S101 60 mg/kg, day 46 from tumour inoculum
[29] = EDO60: EDO-S101 60 mg/kg, day 49 from tumour inoculum
[30] = EDO60: EDO-S101 60 mg/kg, day 53 from tumour inoculum
[31] = EDO60: EDO-S101 60 mg/kg, day 56 from tumour inoculum
[32] = EDO80: EDO-S101 80 mg/kg, day 9 from tumour inoculum (treatment start)
[33] = EDO80: EDO-S101 80 mg/kg, day 10 from tumour inoculum
[34] = EDO80: EDO-S101 80 mg/kg, day 11 from tumour inoculum
[35] = EDO80: EDO-S101 80 mg/kg, day 14 from tumour inoculum
[36] = EDO80: EDO-S101 80 mg/kg, day 16 from tumour inoculum
[37] = EDO80: EDO-S101 80 mg/kg, day 18 from tumour inoculum
[38] = EDO80: EDO-S101 80 mg/kg, day 21 from tumour inoculum
[39] = EDO80: EDO-S101 80 mg/kg, day 23 from tumour inoculum
[40] = EDO80: EDO-S101 80 mg/kg, day 25 from tumour inoculum
[41] = EDO80: EDO-S101 80 mg/kg, day 28 from tumour inoculum
[42] = EDO80: EDO-S101 80 mg/kg, day 30 from tumour inoculum
[43] = EDO80: EDO-S101 80 mg/kg, day 32 from tumour inoculum
[44] = EDO80: EDO-S101 80 mg/kg, day 35 from tumour inoculum
[45] = EDO80: EDO-S101 80 mg/kg, day 38 from tumour inoculum
[46] = EDO80: EDO-S101 80 mg/kg, day 42 from tumour inoculum
[47] = EDO80: EDO-S101 80 mg/kg, day 46 from tumour inoculum
[48] = EDO80: EDO-S101 80 mg/kg, day 49 from tumour inoculum

Structure (SMILES): Cn1c(CCCCCCC(=O)NO)nc2cc(N(CCCl)CCCl)ccc21 [EDO-S101, 7-(5-(bis(2-chloroethyl)amino)-1-methyl-1H-benzo[d]imidazol-2-yl)-N-hydroxyheptanamide]
- mice found dead (40 mg/kg group, unknown reasons, probably not ascribable to the drug): One
- maximum BWL (40 mg/kg, day 10, 24 h after the first dose): 5.4%
- maximum BWL (60 mg/kg, day 25, 48 h after the third dose): 11.7%
- maximum body weight loss (80 mg/kg, day 14, 5 days after administration): 19.3%
- time to recovery from body weight loss (80 mg/kg, recovered by day 24): ≤ 10 days
- Mouse body weight, group Mean [1]: 27.0 g
- BWL % [1]: 0.0%
- Mouse body weight, group Mean [2]: 25.6 g
- BWL % [2]: −5.4%
- Mouse body weight, group Mean [3]: 25.9 g
- BWL % [3]: −4.0%
- Mouse body weight, group Mean [4]: 26.6 g
- BWL % [4]: −1.6%
- Mouse body weight, group Mean [5]: 27.2 g
- BWL % [5]: 0.7%
- Mouse body weight, group Mean [6]: 26.1 g
- BWL % [6]: −3.4%
- Mouse body weight, group Mean [7]: 26.2 g
- BWL % [7]: −3.0%
- Mouse body weight, group Mean [8]: 27.1 g
- BWL % [8]: 0.3%
- Mouse body weight, group Mean [9]: 26.3 g
- BWL % [9]: −2.9%
- Mouse body weight, group Mean [10]: 27.7 g
- BWL % [10]: 2.3%
- Mouse body weight, group Mean [11]: 28.5 g
- BWL % [11]: 5.3%
- Mouse body weight, group Mean [12]: 28.7 g
- BWL % [12]: 6.0%
- Mouse body weight, group Mean [13]: 27.6 g
- BWL % [13]: 0.0%
- Mouse body weight, group Mean [14]: 25.6 g
- BWL % [14]: −7.0%
- Mouse body weight, group Mean [15]: 25.2 g
- BWL % [15]: −8.6%
- Mouse body weight, group Mean [16]: 25.4 g
- BWL % [16]: −8.1%
- Mouse body weight, group Mean [17]: 26.2 g
- BWL % [17]: −5.1%
- Mouse body weight, group Mean [18]: 25.2 g
- BWL % [18]: −8.8%
- Mouse body weight, group Mean [19]: 24.9 g
- BWL % [19]: −9.8%
- Mouse body weight, group Mean [20]: 25.0 g
- BWL % [20]: −9.2%
- Mouse body weight, group Mean [21]: 24.4 g
- BWL % [21]: −11.7%
- Mouse body weight, group Mean [22]: 25.3 g
- BWL % [22]: −8.3%
- Mouse body weight, group Mean [23]: 25.6 g
- BWL % [23]: −7.3%
- Mouse body weight, group Mean [24]: 26.4 g
- BWL % [24]: −4.2%
- Mouse body weight, group Mean [25]: 25.4 g
- BWL % [25]: −8.0%
- Mouse body weight, group Mean [26]: 25.8 g
- BWL % [26]: −6.6%
- Mouse body weight, group Mean [27]: 25.8 g
- BWL % [27]: −6.5%
- Mouse body weight, group Mean [28]: 25.1 g
- BWL % [28]: −8.9%
- Mouse body weight, group Mean [29]: 25.4 g
- BWL % [29]: −8.1%
- Mouse body weight, group Mean [30]: 26.7 g
- BWL % [30]: −3.1%
- Mouse body weight, group Mean [31]: 28.1 g
- BWL % [31]: 2.0%
- Mouse body weight, group Mean [32]: 27.9 g
- Mouse body weight, individual mice (EDO80: EDO-S101 80 mg/kg, day 9 from tumour inoculum (treatment start), 80 mg/kg): 28.4 g and 25.3 g and 26.1 g and 26.6 g and 28.5 g and 27.5 g and 32 g and 28.7 g
- BWL % [32]: 0.0%
- Mouse body weight, group Mean [33]: 25.3 g
- Mouse body weight, individual mice (EDO80: EDO-S101 80 mg/kg, day 10 from tumour inoculum, 80 mg/kg): 25.1 g and 22.8 g and 24 g and 24.8 g and 26.8 g and 24.4 g and 28.6 g and 25.5 g
- BWL % [33]: −9.5%
- Mouse body weight, group Mean [34]: 24.8 g
- Mouse body weight, individual mice (EDO80: EDO-S101 80 mg/kg, day 11 from tumour inoculum, 80 mg/kg): 24.9 g and 22.6 g and 23.5 g and 24.7 g and 26 g and 24.4 g and 27.9 g and 24.3 g
- BWL % [34]: −11.1%
- Mouse body weight, group Mean [35]: 22.5 g
- Mouse body weight, individual mice (EDO80: EDO-S101 80 mg/kg, day 14 from tumour inoculum, 80 mg/kg): 21.8 g and 19.4 g and 22.4 g and 23.5 g and 23.2 g (2×) and 23.8 g and 22.7 g
- BWL % [35]: −19.3%
- Mouse body weight, group Mean [36]: 23.9 g
- Mouse body weight, individual mice (EDO80: EDO-S101 80 mg/kg, day 16 from tumour inoculum, 80 mg/kg): 23.3 g and 19.7 g and 24.2 g and 25.1 g and 24.8 g and 24.4 g and 26.9 g and 22.9 g
- BWL % [36]: −14.3%
- Mouse body weight, group Mean [37]: 25.2 g
- Mouse body weight, individual mice (EDO80: EDO-S101 80 mg/kg, day 18 from tumour inoculum, 80 mg/kg): 24.1 g and 22.2 g and 24.8 g and 26 g and 27 g and 26.1 g and 28 g
- BWL % [37]: −9.6%
- Mouse body weight, group Mean [38]: 26.2 g
- Mouse body weight, individual mice (EDO80: EDO-S101 80 mg/kg, day 21 from tumour inoculum, 80 mg/kg): 25.7 g and 22.6 g and 26.5 g and 26.2 g and 27.4 g and 26.3 g and 29.6 g and 25.2 g
- BWL % [38]: −6.1%
- Mouse body weight, group Mean [39]: 26.6 g
- Mouse body weight, individual mice (EDO80: EDO-S101 80 mg/kg, day 23 from tumour inoculum, 80 mg/kg): 26.1 g and 23.8 g and 26.6 g (3×) and 27.9 g and 30.1 g and 25.2 g
- BWL % [39]: −4.6%
- Mouse body weight, group Mean [40]: 27.8 g
- Mouse body weight, individual mice (EDO80: EDO-S101 80 mg/kg, day 25 from tumour inoculum, 80 mg/kg): 27 g and 25.1 g and 27.9 g and 27.7 g and 28.8 g
- BWL % [40]: −0.4%
- Mouse body weight, group Mean [41]: 28.9 g
- Mouse body weight, individual mice (EDO80: EDO-S101 80 mg/kg, day 28 from tumour inoculum, 80 mg/kg): 27.9 g and 25.4 g and 28.7 g and 28.1 g
- BWL % [41]: 3.6%
- Mouse body weight, group Mean [42]: 28.5 g
- Mouse body weight, individual mice (EDO80: EDO-S101 80 mg/kg, day 30 from tumour inoculum, 80 mg/kg): 28.2 g and 25.3 g and 27.3 g and 27.9 g
- BWL % [42]: 2.1%
- Mouse body weight, group Mean [43]: 28.0 g
- Mouse body weight, individual mice (EDO80: EDO-S101 80 mg/kg, day 32 from tumour inoculum, 80 mg/kg): 27.4 g (2×) and 24.9 g and 26.6 g
- BWL % [43]: 0.4%
- Mouse body weight, group Mean [44]: 25.1 g
- Mouse body weight, individual mice (EDO80: EDO-S101 80 mg/kg, day 35 from tumour inoculum, 80 mg/kg): 24.4 g and 21.9 g and 24.8 g and 26.1 g
- BWL % [44]: −9.9%
- Mouse body weight, group Mean [45]: 25.0 g
- Mouse body weight, individual mice (EDO80: EDO-S101 80 mg/kg, day 38 from tumour inoculum, 80 mg/kg): 24.4 g and 21.8 g and 25.1 g and 25.3 g
- BWL % [45]: −10.4%
- Mouse body weight, group Mean [46]: 27.1 g
- Mouse body weight, individual mice (EDO80: EDO-S101 80 mg/kg, day 42 from tumour inoculum, 80 mg/kg): 26.3 g and 23.1 g and 27 g and 28 g
- BWL % [46]: −2.9%
- Mouse body weight, group Mean [47]: 28.8 g
- Mouse body weight, individual mice (EDO80: EDO-S101 80 mg/kg, day 46 from tumour inoculum, 80 mg/kg): 28.6 g and 25.3 g and 28.3 g and 30 g
- BWL % [47]: 3.1%
- Mouse body weight, group Mean [48]: 30.2 g
- Mouse body weight, individual mice (EDO80: EDO-S101 80 mg/kg, day 49 from tumour inoculum, 80 mg/kg): 29.8 g and 26 g and 30 g and 32.3 g
- BWL % [48]: 8.2%
- BWL during second cycle (all dose regimens): < 9%
